Measured values reported in patent publication US6713056B1, “Combined preparation for the treatment of neoplasic diseases or of infectious diseases” (I.D.M. Immuno-Designed Molecules, priority 1998, dated 2004).

Assays:
[1] = test system: human carcinoma solid tumors; assay: Nude mice with human carcinoma solid tumors: cytotoxic drugs, then activated human macrophages, then the same drugs; format: in vivo; conditions: after macrophage injection; drugs used alone or in combination
Source text: 2) Nude mice inoculated with human carcinoma solid tumors are initially treated with cytotoxic drugs (Adriamycin, Etretinate, Taxotere), used alone or in combination.

[2] = test system: 16R-OV1/DDP human ovary cancer cell line; assay: Survival of cisplatin-resistant ovary cancer cells grown with MAK for 24 hours, then with cisplatin (FIG. 3); format: cell-based; conditions: cisplatin alone at maximal dose 10^-3 M
Method: The percentage of tumor cell survival is measured according to the method described in “Feasibility of drug screening with panels of human tumor cell lines using a microculture tetrazolium assay” (Alley M. C., Scudiero D. A., Monks A., et al.; Cancer Res., 1988, 48: 489-501), and is plotted against the dose of cisplatin (abscissa) in the test tube (molar concentration).
FIG. 3 represents the percentage of cellular survival as a function of cisplatin concentration (M).
The curve with hollow circles corresponds to the use of cisplatin alone.
The plain curve corresponds to the use of MAK alone.
The curve with black squares corresponds to the use of the combination of MAK followed by cisplatin.
The curve with hollow triangles corresponds to the theoretical additive curve of a treatment with MAK alone and a treatment with cisplatin alone.
16R-OV1/DDP human ovary cancer cell line was rendered resistant to cisplatinum by continuous exposure to increasing concentrations of cisplatin (Fajac A., et al. Cisplatin induced apoptosis and p.53 gene status in a cisplatin resistant human ovarian carcinoma cell line. Int. J. Cancer 68, 67-74, 1996). The cells are grown at 37° C., 5% CO2 in RPMI 1640 medium in the presence of activated human macrophages (MAK) during 24 hours and then with cisplatin at increasing concentrations. […]

solid carcinoma = assay: Mice bearing solid carcinoma: apoptosis-inducing drug plus monocyte derived cells; format: in vivo, C57B16 mice; conditions: drug intraperitoneally, 24 h later 0.1 million monocyte derived cells in tumor periphery; seen only after combined treatment
Method: 7) C57B16 mice bearing solid carcinoma are injected intraperitonealy with a drug inducing apoptosis (1 mg mitomycin C or 0.1 mg sodium butyrate). After 24 h, mice are injected with 0.1 million monocyte derived cells in tumor periphery. […] In another protocol, carcinoma cells are treated in vitro with 0.01 mM sodium butyrate, and then submitted to phagocytosis by murine monocyte derived cells.

| SMILES | effect of second treatment with the same cytotoxic drugs (subcutaneous tumor size) [1] | tumor outcome after combined treatment (solid carcinoma) | further results |
| --- | --- | --- | --- |
| COc1cccc2c1C(=O)c1c(O)c3c(c(O)c1C2=O)C[C@@](O)(C(=O)CO)C[C@@H]3O[C@H]1C[C@H](N)[C@H](O)[C@H](C)O1 [Adriamycin] | further antitumoral effect | – | – |
| N.N.[Cl][Pt][Cl] [Cisplatin, cisplatin] | – | – | inhibition of survival [2]: 35% |
| CCOC(=O)/C=C(C)/C=C/C=C(C)/C=C/c1c(C)cc(OC)c(C)c1C [Etretinate] | further antitumoral effect | – | – |
| CC(=O)O[C@@]12CO[C@@H]1C[C@H](O)[C@@]1(C)C(=O)[C@H](O)C3=C(C)[C@@H](OC(=O)[C@H](O)[C@@H](NC(=O)OC(C)(C)C)c4ccccc4)C[C@@](O)([C@@H](OC(=O)c4ccccc4)[C@H]21)C3(C)C [Taxotere] | further antitumoral effect | – | – |
| CO[C@@]12[C@H](COC(N)=O)C3=C(C(=O)C(C)=C(N)C3=O)N1C[C@@H]1N[C@@H]12 [mitomycin C] | – | Tumor regression and protection against further tumor challenge | – |
| CCCC(=O)[O-].[Na+] [sodium butyrate] | – | Tumor regression and protection against further tumor challenge | – |
